In patent US9359311B2, “Substituted aromatic oligomers” (NEUROSCIOS GMBH, priority 2011, dated 2016):
Entries after “also recorded” stand apart in the source; their conditions may differ.

Legend:
primary chicken neurons = test: Inhibition of Abeta 1-42 toxicity on primary chicken neurons (MTT); format: cell-based; design: key: No: no effect; +: minor positive effect on cell viability in the presence of aggregated Aβ 1-42; ++: medium positive effect on cell viability in the presence of aggregated Aβ 1-42; +++: strong positive effect on cell viability in the presence of aggregated Aβ 1-42; conditions: 10 μM Aβ1-42 aggregated together with compound for 48 h
Procedure: One-day-old fertilized eggs are stored under appropriate conditions until start of breeding. On embryonic day 0 eggs are transferred to the breeding incubator and under turning, kept at 37.8° C. and 55% humidity until embryonic day eight. Neurons are prepared as follows: In short, embryos are transferred to a plastic dish, and decapitated. Both brain hemispheres are removed, collected and any loose tissue removed. Hemispheres are mechanically dissociated and 4.8×10^4 cells per well (96-well plates) are seeded in a volume of 160 μl.
Aβ1-42 (MW 4514.1) was obtained from American Peptide Company as a lyophilized powder. A stock solution of 340 μM Aβ1-42 was prepared in 50 mM Tris-Buffer, 150 mM NaCl, pH7.6 according to the manufacturer's instructions. After sonication, the stock solution is diluted 1:1 with the test compounds to obtain a concentration of 170, 17 and 1.7 μM. After aggregation at 4° C. for 48 h, the solutions are sonicated again prior to application to the cells. The final concentration of Aβ1-42 applied to the primary chicken neurons is 10 μM.
Aβ1-42 aggregated together with compound for 48 hrs was applied to chicken neurons at DIV4 (days in vitro) and analyzed at DIV10 (144 hrs) and all others were applied to chicken neurons at DIV6 and analysed at DIV10 (96 hrs).
Viability of cultures is determined by the MTT assay. The MTT assay allows for the measurement of the mitochondrial dehydrogenase activity which reduces yellow MTT to dark blue formazan crystals. Since this reaction is catalyzed in living cells only this assay is used for the determination of cell viability. MTT solution is added to each well in a final concentration of 0.5 mg/ml. After 2 hours the MTT containing medium is aspired. Cells are lysed in 3% SDS and the formazan crystals are dissolved in isopropanol/HCl. Optical density is measured with a plate-reader at wavelength 570 nm. Cell survival rate is expressed as a percentage of optical density (OD) relative to control cells not treated with Aβ or compound.

[1] = system: PHF-tau doubly-phosphorylated at Thr231 and Ser235; test: Phosphorylation of Tau in neurites crossing amyloid plaques, AT180 IHC, hAPPSL Tg mice; format: in vivo, mouse
Procedure: (§1) Vehicle: Phosphate Buffered Saline (PBS; 6.7 mM PO4, 155 mM NaCl, pH=7.3-7.5) (BioWhittaker PBS from Lonza).
(§2) Test Item (T.I.): p-FTAA and P9707_003, diluted in vehicle from stock solution in deionized water (10 mg/ml).
(§3) Tg hAPPSL: Transgenic hAPPSL mice over-expressing hAPP(751) under the control of the murine Thy-1 promoter with a C57BL/6xDBA background.
(§4) 48 hAPP Tg mice plus 4 reserves allocated to 4 different treatment groups were treated with either vehicle only (control), p-FTAA or P9707_003. As an additional control, 12 nTg littermates of the hAPPSL mice (plus 1 reserve) were treated with vehicle only. Starting at 6.5 months of age, female hAPPSL mice were treated with vehicle only, p-FTAA (dosage: 1 or 10 mg/kg/day) or P9707_003 (dosage: 10 mg/kg/day) for 90 days. The Test Items (T.I.s) were administered in Vehicle. Compound and vehicle were administered twice daily i.p. for 90 days. Tg hAPPSL mice with a C57BL/6xDBA background and corresponding nTg littermates at an age of 6.5 months (+2 weeks) were randomly assigned to the treatment groups.
Histological evaluations were performed with six randomly chosen cryo-frozen brain hemispheres of treatment groups PBS Control, p-FTAA 1 mg/kg/day, p-FTAA 10 mg/kg/day, and P9707_003 10 mg/kg/day.
15 cryo-sections per level (altogether 5 levels), each 10 μm thick (Leica CM 3050S) were sagittally cut. Brain levels were chosen according to the morphology atlas “The Mouse Brain” from Paxinos and Franklin (2nd edition). The cutting of the five levels started with a random slice, then sampling was continued uniformly and systematically, always retaining 15 slices per level in series and discarding 100 μm in between the levels.
TAU phosphorylation was visualized immunohistochemically using the AT180 antibody. Clone AT180 recognizes PHF-tau doubly-phosphorylated at Thr231 and Ser235.
For determination of amyloid depositions 5 slices (1 from each level) per brain were stained and screened. From each slice five images were captured from 5 defined areas in the brain. The order of these positions reflect the time course of plaque deposition in the APPsl model, which starts in the frontal cortex (P11) at the age of 3 months and then spreads to the medial (P12) and dorsal cortex over age. At six months of age, plaques can be found in the medial cortex (P13), from then plaque load spreads into the hippocampal formation with hot spots in the subiculum (P14) and the dentate gyrus (P15) at the age of nine months.
(§5) Mosaic images for plaque load quantification including the whole cortex and hippocampus were recorded on a Zeiss AxioImager.Z1 microscope using high aperture lenses and an AxioVision 4.8 software driven AxioCam MRm (10× lens, 1× optocoupler). Plaques for AT180 quantifcation were imaged with a 20× lens. Detail images for qualitative figures are 40× image stacks collapsed to 2D by the extended depth of field function of AxioVision software.
Descriptive statistical analysis was performed on all evaluated parameters, Kolmogorov Smirnov test were performed to test normal distribution of data. Data in graphs are represented as mean±SEM.

[2] = system: amyloid depositions (plaques); test: Plaque number and plaque area in hAPPSL Tg mice (ThioflavinS staining); format: in vivo, mouse; conditions: twice daily i.p., 90 days, vs vehicle
Procedure: as §1, §2, §3
as §4, with “groups. […]” for “groups.”
Plaque load was quantified by staining with ThioflavinS staining of beta-sheet structures in a double incubation.
For determination of amyloid depositions 5 slices (1 from each level) per brain were stained and screened. Region areas (hippocampus and cortex) were measured and plaque surface area, number of plaques and mean size of objects within each region were quantified separately using automated image analysis software (Image Pro Plus, version 6.2).
as §5, with “Detail images for qualitative figures are 40× image stacks collapsed to 2D by the extended depth of field function of AxioVision software.” left out
Descriptive statistical analysis was performed on all evaluated parameters, Kolmogorov Smirnov test were performed to test normal distribution of data. […]

[3] = P9707_003 10 mg/kg/day, p-FTAA 1 or 10 mg/kg/day

## O=C(O)Cc1ccsc1-c1ccc(-c2sc(-c3ccc(-c4cc(CC(=O)O)c(-c5ccc(-c6sccc6CC(=O)O)s5)s4)s3)cc2CC(=O)O)s1 [Example 1, 2-(2-{5-[3-(Carboxymethyl)-5-{5-[4-(carboxymethyl)-5-{5-[3-(carboxymethyl)thiophen-2-yl]thiophen-2-yl}thiophen-2-yl]thiophen-2-yl}thiophen-2-yl]thiophen-2-yl}thiophen-3-yl)acetic acid]
Primary chicken neurons; Conc. 0.1 μM
  Rescue of Abeta toxicity (MTT): no
Primary chicken neurons; Conc. 1 μM
  Rescue of Abeta toxicity (MTT): +++
Primary chicken neurons; Conc. 10 μM
  Rescue of Abeta toxicity (MTT): +++
[1]; 10 mg P9707_003 treatment, plaque sides 2 and 4
  AT180 load: significant reduction
[1]; 90 days i.p., hAPPSL Tg mice
  AT180 IR in plaques of younger history of origin (hippocampal formation, subiculum, dentate gyrus): drastically reduced
[1]; P9707_003 10 mg/kg/day, 90 days i.p.
  AT180 load at hippocampal plaques, reduced to: approximately 45%
[1]; P9707_003 10 mg/kg/day, 90 days i.p., positions 4 and 5
  reduction of AT180: more than 40%
[2]; 10 mg/kg/day, ThioflavinS
  reduction of plaque number in the hippocampus: 54%
[2]; [3]
  hippocampal plaque area percentage (ThioflavinS): significantly lower plaque load; also recorded: reduced
  number of ThioflavinS positive objects (plaque number) in the hippocampus: reduced object number; also recorded: highly significant reduced
